From BindingDB's records for doi:10.7270/Q2QJ7FTF (Burnham Center For Chemical Genomics, 2011)

Target: T1, C-C chemokine receptor type 6 (Homo sapiens, UniProt P51684)
T1 sequence (P51684 whole entry): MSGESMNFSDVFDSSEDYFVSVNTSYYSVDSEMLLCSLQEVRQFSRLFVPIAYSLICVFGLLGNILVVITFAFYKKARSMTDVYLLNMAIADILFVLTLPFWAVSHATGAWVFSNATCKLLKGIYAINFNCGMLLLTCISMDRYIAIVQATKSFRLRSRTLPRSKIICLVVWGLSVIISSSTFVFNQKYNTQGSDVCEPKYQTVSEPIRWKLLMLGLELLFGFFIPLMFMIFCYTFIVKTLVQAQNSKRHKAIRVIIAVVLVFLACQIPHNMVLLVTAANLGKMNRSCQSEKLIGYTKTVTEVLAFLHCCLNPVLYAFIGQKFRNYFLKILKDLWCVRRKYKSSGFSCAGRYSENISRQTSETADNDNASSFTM
Experiment: analog antagonism of CCR6 beta-arrestin signaling – cell-based, luminescent beta-arrestin readout, SAR follow-up (AID 540334)

Compound | IC50
OCC12C=CC(O1)c1c2c(O)n(-c2ccccc2-c2ccccc2)c1O (configuration not stated) [7-(hydroxymethyl)-2-(2-phenylphenyl)-4,7a-dihydro-3aH-octahydro-1H-4,7-epoxyisoindole-1,3-dione] | > 66.6 µM
CN1C(=O)C(C2CC(c3ccc(Cl)cc3)N=N2)C(=O)N(C)C1=O (configuration not stated) [SMR000439471] | 5.84 µM
